# Measurements as given in patent publication US20230106760A1, “ANTIBACTERIAL AND ANTIFUNGAL POLYKETIDES FROM ENVIRONMENTAL AMYCOLATOPSIS SPP” (The United States of America, as represented by the …, priority 2020, published 2023).
# How the values were obtained:
# [1] = test system: Vancomycin-resistant E. faecalis ATCC 51299; assay: MIC, CLSI broth dilution susceptibility assay; format: cell-based, Enterococcus faecalis
# Experimental: (§1) The compounds were assayed against Gram-positive bacteria Staphylococcus aureus (Sa), methicillin-resistant Sa (MRSA), Enterococcus faecalis, and Vancomycin-resistant E. faecalis; the Gram-negative bacteria Escherichia coli and Pseudomonas aeruginosa; and the fungi Candida albicans and Amphotericin B-resistant C. albicans.
# (§2) The growth conditions were adapted from the CLSI protocols for broth dilution susceptibility assays. A culture of S. aureus ATCC 29213 was diluted with MHII broth to an inoculum of—5×10^5 CFU/mL. Cultures were grown in 100 μL in round-bottom 96-well plates with increasing concentrations of test or control compound. Plates were gently rocked at 37° C. overnight and then 50 μL of each culture was spread onto TSA plates without antibiotic. The plates were incubated at 37° C. overnight and then examined for bacterial growth. Similarly, an inoculum of C. albicans ATCC 28517 or C. auris ATCC MYA-5001 was prepared in RPMI-1640 with 165 mM MOPS at 0.5×10^3-2.5×10^3 CFU/mL. Cultures were grown in 200 μL in round-bottom 96-well plates with increasing concentrations of test or control compound. Plates were gently rocked at 35° C. overnight and then 50 μL of each culture was spread onto Sabouraud dextrose agar (SDA) plates without compound. The plates were incubated at 35° C. overnight and then examined for fungal growth.
# [2] = test system: MRSA, methicillin-resistant Sa ATCC 43300; assay: MIC, CLSI broth dilution susceptibility assay; format: cell-based, Staphylococcus aureus; conditions: for Minimum Inhibitory Concentration (MIC): MRSA ATCC 43300
# Experimental: as §1, §2
# [3] = test system: Candida albicans ATCC 28517; assay: MIC, CLSI broth dilution susceptibility assay; format: cell-based; conditions: for Minimum Inhibitory Concentration (MIC): Candida albicans ATCC 28517
# Experimental: as §1, §2
# [4] = test system: Staphylococcus aureus (Sa) ATCC 29213; assay: MIC, CLSI broth dilution susceptibility assay; format: cell-based; conditions: for Minimum Inhibitory Concentration (MIC): Staphylococcus aureus ATCC 29213
# Experimental: as §1, §2
# [5] = test system: Escherichia coli ATCC 25922; assay: MIC, CLSI broth dilution susceptibility assay; format: cell-based
# Experimental: as §1, §2
# [6] = test system: Pseudomonas aeruginosa ATCC 27853; assay: MIC, CLSI broth dilution susceptibility assay; format: cell-based
# Experimental: as §1, §2
# [7] = test system: Enterococcus faecalis ATCC 29212; assay: MIC, CLSI broth dilution susceptibility assay; format: cell-based; conditions: for Minimum Inhibitory Concentration (MIC): Enterococcus faecalis ATCC 29212
# Experimental: as §1, §2
# [8] = test system: Candida auris ATCC MYA-5001; assay: MIC, CLSI broth dilution susceptibility assay; format: cell-based; conditions: for Minimum Inhibitory Concentration (MIC): Candida auris ATCC MYA-5001
# Experimental: as §1, §2
# [9] = test system: Amphotericin B-resistant C. albicans ATCC 200955; format: cell-based
# Experimental: as §1, §2
# S. aureus ATCC 29213 = assay: Bactericidal activity: broth cultures with compound plated onto TSA without antibiotic; format: cell-based, Staphylococcus aureus; conditions: for MIC: Staphylococcus aureus, ATCC29213
# Experimental: as §2
# (§3) After treatment with concentrations of compound 2 at or nearing the MIC, no viable organism could be recovered.
# (§4) FIG. 19-20 show bactericidal and fungicidal activities of compound 2. FIG. 19A-C show the bactericidal activity of compound 2 against S. aureus ATCC 29213. […] FIG. 20A-B show the fungicidal activity of compound 2.
# C. albicans ATCC 28517 = assay: Fungicidal activity: broth cultures with compound plated onto SDA without compound; format: cell-based, Candida albicans
# Experimental: as §2, §3, §4
# C. auris ATCC MYA-5001 = assay: as above; format: cell-based, Candida auris
# Experimental: as §2, §3, §4
# [10] = test system: Amycolatopsis glycosyltransferase; assay: Glycosyltransferase assay (substrate specificity); format: biochemical, Amycolatopsis sp. F10; conditions: PBS, 500 μM UDP-glucose, 100 μM substrate, 30° C., 2 to 30 min; HPLC UV 254 nm or MS
# Experimental: Glycosyltransferase expression vector cloning: An expression vector pET28b-gt was constructed by cloning the glycosyltransferase gene into pET28b (Novagen) with a C-terminal 6-His tag using the NEBuilder HiFi DNA Assembly kit (New England Biolabs). The glycosyltransferase gene was PCR amplified from F10 genomic DNA with primers that appended 5′ and 3′ overhangs homologous to the pET28b multiple cloning site. The linearized pET28b vector was prepared by restriction enzyme digestion with NcoI and XhoI. After cloning and confirmation by Sanger sequencing, pET28b-gt was transformed into E. coli BL21(DE3) for protein expression. The expression vector pET28b-gt-H15A was created from pET28b-gt with site-directed mutagenesis using overlapping primers and the QuikChange II kit.
# Glycosyltransferase recombinant protein purification: An overnight culture of the glycosyltransferase expression strain in Luria-Bertani broth (LB) was used to inoculate 2 L LB with a 1:100 dilution (v/v). The culture was grown at 37° C. to OD600=0.5-0.7 and 0.1 mM isopropyl β-d-1-thiogalactopyranoside (IPTG) was added to induce protein expression for 4 hours. Cells were harvested by centrifugation, suspended in 20 mL phosphate-buffered saline (PBS) and stored at −80° C. For purification, the cells were thawed, lysed (lysozyme, DNase, MgCl2, phenylmethylsulfonyl fluoride (PMSF), and sonication), and cellular debris was removed by centrifugation. The glycosyltransferase was purified from the clarified lysate in two chromatographic steps on an AKTA Pure 25 FPLC. […] The eluted fractions containing the glycosyltransferase were confirmed by SDS-PAGE, pooled, and concentrated and buffer exchanged to remove imidazole in a 10000 Da MW centrigual filter device. The sample was run on a HiLoad Superdex 75 pg 16/600 size exclusion column with 50 mM HEPES pH 6.8/50 mM NaCl/10% glycerol. Protein purity was confirmed by SDS-PAGE. The purified glycosyltransferase was concentrated and flash frozen in aliquots at […]. […]
# [11] = S. aureus ATCC 29213, FIG. 19 bactericidal experiment
# [12] = at or nearing the MIC no viable organism could be recovered
structure (smiles),measurement,setting,value
CC/C=C/C=C/C=C/C(O)CC1(O)OC(CC(O)C(O)C(O)C(O)C(O)C(C)C(O)C(C)C(O)CC(O)CC(O)CC(O)C(C)C(O)C(C)C(O)C(C)C(O)C(CC(C)CC(C)/C=C(C)/C(O)=C2/C(=O)C(C)N(C)C2=O)OC2OC(CO)C(O)C(O)C2O)C(O)C(O)C1O (stereo not shown) [Compound 1],Minimum Inhibitory Concentration (MIC),[1],>128 micrograms/mL
same,Minimum Inhibitory Concentration (MIC),[2],>128 micrograms/mL
same,Minimum Inhibitory Concentration (MIC),[3],>128 micrograms/mL
same,Minimum Inhibitory Concentration (MIC),[4],>128 micrograms/mL
same,Minimum Inhibitory Concentration (MIC),[5],>128 micrograms/mL
same,Minimum Inhibitory Concentration (MIC),[6],>128 micrograms/mL
same,Minimum Inhibitory Concentration (MIC),[7],>128 micrograms/mL
same,Minimum Inhibitory Concentration (MIC),[8],>128 micrograms/mL
same,Minimum Inhibitory Concentration (MIC),[9],>128 micrograms/mL
CC/C=C/C=C/C=C/C(O)CC1(O)OC(CC(O)C(O)C(O)C(O)C(O)C(C)C(O)C(C)C(O)CC(O)CC(O)CC(O)C(C)C(O)C(C)C(O)C(C)C(O)C(O)CC(C)CC(C)/C=C(C)/C(O)=C2/C(=O)C(C)N(C)C2=O)C(O)C(O)C1O (stereo not shown) [Compound 2],MIC in the experiment,S. aureus ATCC 29213; [11],2 µg/mL
same,Mode of action against S. aureus (bactericidal),S. aureus ATCC 29213; [12],bactericidal
same,MIC in the experiment,"C. albicans ATCC 28517; C. albicans ATCC 28517, FIG. 20A fungicidal experiment",8 µg/mL
same,Mode of action against C. albicans (fungicidal),C. albicans ATCC 28517; [12],fungicidal
same,MIC in the experiment,"C. auris ATCC MYA-5001; C. auris ATCC MYA-5001, FIG. 20B fungicidal experiment",16 µg/mL
same,Mode of action against C. auris (fungicidal),C. auris ATCC MYA-5001; [12],fungicidal
same,Glycosyltransferase activity on the substance as substrate,[10],complete conversion
same,Minimum Inhibitory Concentration (MIC),[1],8 micrograms/mL
same,Minimum Inhibitory Concentration (MIC),[2],2 micrograms/mL
same,Minimum Inhibitory Concentration (MIC),[3],8 micrograms/mL
same,Minimum Inhibitory Concentration (MIC),[4],2 micrograms/mL
same,Minimum Inhibitory Concentration (MIC),[5],>128 micrograms/mL
same,Minimum Inhibitory Concentration (MIC),[6],>128 micrograms/mL
same,Minimum Inhibitory Concentration (MIC),[7],8 micrograms/mL
same,Minimum Inhibitory Concentration (MIC),[8],16 micrograms/mL
same,Minimum Inhibitory Concentration (MIC),[9],8 micrograms/mL
"C[C@@H]1[C@H](O)[C@@H](C)/C=C/C=C/C=C/C=C/C=C/C=C/C=C/[C@H](O[C@@H]2O[C@H](C)[C@@H](O)[C@H](N)[C@@H]2O)C[C@@H]2O[C@](O)(C[C@@H](O)C[C@@H](O)[C@H](O)CC[C@@H](O)C[C@@H](O)CC(=O)O[C@H]1C)C[C@H](O)[C@H]2C(=O)O [amphotericin B, reference compound]","MIC, antibiotic control","[3]; C. albicans, footnote control",C. albicans: amphotericin B = 2 ug/mL
"O=C(N[C@H](CO)[C@H](O)c1ccc([N+](=O)[O-])cc1)C(Cl)Cl [chloramphenicol, reference compound]",MIC,S. aureus ATCC 29213; [11],8 µg/mL
CC[C@H]1OC(=O)[C@H](C)[C@@H](O[C@H]2C[C@@](C)(OC)[C@@H](O)[C@H](C)O2)[C@H](C)[C@@H](O[C@@H]2O[C@H](C)C[C@H](N(C)C)[C@H]2O)[C@](C)(O)C[C@@H](C)C(=O)[C@H](C)[C@@H](O)[C@]1(C)O [erythromycin],Glycosyltransferase activity on the substance as substrate,[10],no activity
"OC(Cn1cncn1)(Cn1cncn1)c1ccc(F)cc1F [fluconazole, reference compound]","MIC, antibiotic control","[8]; C. auris, footnote control",C. auris: fluconazole = 1 ug/mL
"Cc1onc(-c2ccccc2)c1C(=O)N[C@@H]1C(=O)N2[C@@H]1SC(C)(C)[C@@H]2C(=O)O [oxacillin, reference compound]",MIC,S. aureus ATCC 29213; [11],2 µg/mL
same,"MIC, antibiotic control","[4]; S. aureus, footnote control",S. aureus: oxacillin = 0.25-0.5 ug/mL
CC[C@H]1OC(=O)C[C@@H](O)[C@H](C)[C@@H](O[C@@H]2O[C@H](C)[C@@H](O[C@H]3C[C@@](C)(O)[C@@H](O)[C@H](C)O3)[C@H](N(C)C)[C@H]2O)[C@@H](CC=O)C[C@@H](C)C(=O)/C=C/C(C)=C/[C@@H]1CO[C@@H]1O[C@H](C)[C@@H](O)[C@@H](OC)[C@H]1OC [tylosin],Glycosyltransferase activity on the substance as substrate,[10],no activity
"CN[C@H](CC(C)C)C(=O)N[C@H]1C(=O)N[C@@H](CC(N)=O)C(=O)N[C@H]2C(=O)N[C@H]3C(=O)N[C@H](C(=O)N[C@H](C(=O)O)c4cc(O)cc(O)c4-c4cc3ccc4O)[C@H](O)c3ccc(c(Cl)c3)Oc3cc2cc(c3O[C@@H]2O[C@H](CO)[C@@H](O)[C@H](O)[C@H]2O[C@H]2C[C@](C)(N)[C@H](O)[C@H](C)O2)Oc2ccc(cc2Cl)[C@H]1O [vancomycin, reference compound]","MIC, antibiotic control","[2]; MRSA, footnote control",MRSA: vancomycin = 0.5-1 ug/mL
same,"MIC, antibiotic control","[7]; E. faecalis, footnote control",E. faecalis: vancomycin = 2 ug/mL
